From PubChem BioAssay (NCI)
Values joined by “and” are separate entries in the source; they are usually repeats but may differ in a detail not shown here. Identical values can stand only once.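 Where inhibition never reached the appropriate level, the endpoint shown equals the highest concentration tested. Otherwise, values were interpolated linearly from a five-concentration, 48-hour dose response in 96-well plates. GI50 = concentration required for 50% inhibition of growth. At the TGI there is no net growth.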

Legend:
Assay in all cases: NCI-60 cell line screen, 48 h
[1] = tested on: CCRF-CEM leukemia
[2] = tested on: COLO 205 colon
[3] = tested on: HCT-116 colon
[4] = tested on: HCT-15 colon
[5] = tested on: HOP-92 NSCLC
[6] = tested on: MDA-MB-231 breast
[7] = tested on: NCI-H226 lung
[8] = tested on: RXF 393 renal
[9] = tested on: RPMI-8226 leukemia
[10] = tested on: T-47D breast

Compound | GI50 [1] | TGI [1] | GI50 [2] [µM] | TGI [2] | GI50 [3] | TGI [3] | GI50 [4] | TGI [4] | GI50 [5] [µM] | TGI [5] | GI50 [6] [µM] | TGI [6] | GI50 [7] | TGI [7] | GI50 [8] [µM] | TGI [8] [µM] | GI50 [9] | TGI [9] | GI50 [10] [µM] | TGI [10] [µM]
Cn1c(COC(=O)NCCN2CCOCC2)nc2c(N3CCOCC3)nc(-c3ccccc3)nc21 | 0.306 µM | 2.17 µM | 1.49 | 3.36 µM | 0.397 µM | 1.7 µM | 0.46 µM | 1.87 µM | 0.779 | 2.45 µM | 1.3 | 2.88 µM | 4.38 µM | 20.3 µM | 0.797 | 2.22 | – | – | – | –
Cn1cc(-c2nn3cc(-c4cccs4)nc3s2)c2cc(F)ccc21 | 2.54 µM | > 100 µM | – | – | 2.04 µM | 26.4 µM | 0.606 µM | > 100 µM | 12.2 | 76.9 µM | 3.23 | 30.6 µM | 4.56 µM | 35.8 µM | 1.59 | 5.73 | 3.01 µM | 26.5 µM | – | –
Cc1cc(N)c2ccccc2[n+]1CCCCCCCCCC[n+]1c(C)cc(N)c2ccccc21 | 0.635 µM and 1.3 µM | 3.53 µM and 16.2 µM and 6.15 µM | – | – | 0.28 µM and 2 µM | – | 1.25 µM and 3.67 µM | > 50 µM and 25.9 µM and 81.9 µM | 0.168 | – | 0.505 | > 11.5 µM and 12.7 µM | 0.576 µM and 1.11 µM | > 50 µM and 22.7 µM and 5.29 µM | – | – | 0.0435 µM and 0.324 µM | 0.859 µM and 2.61 µM and 2.71 µM | 0.0959 | –
CN1CCN(C(=S)SCN2C(=O)c3ccccc3S2(=O)=O)CC1 | 2.23 µM | – | 3.48 | 21.3 µM | 12.8 µM | 44.9 µM | 21.3 µM | 99.1 µM | – | – | 35.3 | > 100 µM | > 100 µM | > 100 µM | 39.5 | > 100 | 2.22 µM | 6.87 µM | 11 | > 100
COc1ccc(-n2nc(C)c3c2N(C)C2(C)C[C@@H]4C3(C)[C@@H]3CC4(C2)N(C)c2c(c(C)nn2-c2ccc(OC)cc2)[C@H]3C)cc1 (stereo partly drawn) | – | – | – | – | 2.09 µM | > 100 µM | – | – | – | – | 6.35 | 48.3 µM | 5.34 µM | > 100 µM | 2.92 | 13.3 | – | – | 2.44 | 81.9
CCCCCCCCCCCCCCCCCC1=NC(C)(C)CN1CCO | 1.92 µM | 5.05 µM | 1.55 | 2.93 µM | 1.63 µM | 3.19 µM | 1.61 µM | 3 µM | 1.4 | 7.84 µM | 1.77 | 3.41 µM | 2.84 µM | 9.04 µM | – | – | – | – | 2.24 | 5.61
O=c1c2cc(F)ccc2sc2c(NCCCN3CCCC3)nc3ccccc3c12 | 2.02 µM | 4.51 µM | – | – | 1.63 µM | 3.19 µM | 1.82 µM | 3.53 µM | 1.13 | 3.85 µM | 1.55 | 3.2 µM | 3.37 µM | 15.4 µM | 2.33 | 8.67 | – | – | 3.89 | 23.8
CC(C)(C)c1ccc(S(=O)(=O)N[C@H]2CC[C@H]3[C@@H]4CCc5cc(O)ccc5[C@H]4CC[C@]23C)cc1 | 2.63 µM | 7.79 µM | 1.85 | 3.3 µM | 1.63 µM | 2.98 µM | – | – | 1.53 | 4.2 µM | 1.91 | 4.13 µM | 1.75 µM | 3.51 µM | 1.61 | 3.46 | 1.88 µM | 4.51 µM | 2.59 | 8.76
C[C@H](NC(=O)CCC(F)(F)F)C(=O)N[C@@H]1C(=O)N(CCO)c2ncccc2-c2ccccc21 | > 100 µM | > 100 µM | > 100 | > 100 µM | > 100 µM | > 100 µM | > 100 µM | > 100 µM | – | – | > 100 | > 100 µM | > 100 µM | > 100 µM | > 100 | > 100 | > 100 µM | > 100 µM | > 100 | > 100
CC(C)n1nc(C#Cc2cccc(NC(=O)c3cccc(C(F)(F)F)c3)c2)c2c(N)ncnc21 | 2.73 µM | > 100 µM | 0.524 | 5.73 µM | 0.308 µM | 3.89 µM | 2.41 µM | > 100 µM | – | – | 0.256 | 2.07 µM | 0.99 µM | 6.35 µM | 1.02 | 2.49 | 2.26 µM | 16.7 µM | 3.22 | 17.5
Cc1cc2c(cc1Cl)SC1=NN(C)C(c3ccccc3O)N1S2(=O)=O (stereo not drawn) | 75.4 µM | > 100 µM | > 100 | > 100 µM | 44.1 µM | > 100 µM | 54 µM | > 100 µM | 37.6 | > 100 µM | 60.3 | > 100 µM | > 100 µM | > 100 µM | – | – | > 100 µM | > 100 µM | > 100 | > 100
COc1ncnc2c(-c3ccco3)cn(COCc3ccccc3)c12 | > 50 µM | > 50 µM | > 50 | > 50 µM | 3.76 µM | > 50 µM | – | – | – | – | > 50 | > 50 µM | > 50 µM | > 50 µM | > 50 | > 50 | 4.87 µM | > 50 µM | 2.98 | > 50
CCCCCCCCCCCCCCCC(=O)N[C@H]1CCc2cc(OC)c(OC)c(OC)c2-c2ccc(SC)c(=O)cc21 | 2.68 µM | 11.4 µM and 15.3 µM | – | 0.494 µM and 0.391 µM | 1.04 µM | 3.67 µM and 3.49 µM | 1.54 µM | 5.01 µM and 4.04 µM | 0.564 | 11.3 µM and 5.32 µM | – | – | 2.63 µM | 0.656 µM and 5.65 µM | – | 14.8 | – | 22.7 µM | – | –
CN1C(=O)C23CC4=CC=CC(O)C4N2C(=O)C1(CO)SS3 (stereo not drawn) | – | – | – | 0.292 µM | – | 0.279 µM | – | 0.419 µM | – | 0.41 µM | – | 0.373 µM | – | 0.152 µM | – | 0.38 | – | 0.591 µM | – | 0.339
O=C(Cc1nc2ccc([N+](=O)[O-])cc2[nH]c1=O)C(=O)Nc1cc(Cl)c(Cl)cc1Cl | – | > 100 µM | – | > 100 µM | – | > 100 µM | – | > 100 µM | – | > 100 µM | – | > 100 µM | – | > 100 µM | – | > 100 | – | – | – | > 100
